Results taken from ChEMBL document CHEMBL5154908, “Design, Synthesis, and Biological Characterization of Inhaled p38α/β MAPK Inhibitors for the Treatment of Lung Inflammatory Diseases” (J Med Chem, 2022).

Tests used:
[1] = biological target: T1, Mitogen-activated protein kinase 14 (Homo sapiens, UniProt Q16539); assay: Inhibition of human recombinant full length GST-tagged p38alpha expressed in Escherichia coli preincubated for 2 hrs followed by ATP addition and measured after 1 hr by Alpha screen assay
T1 sequence (Q16539 whole entry): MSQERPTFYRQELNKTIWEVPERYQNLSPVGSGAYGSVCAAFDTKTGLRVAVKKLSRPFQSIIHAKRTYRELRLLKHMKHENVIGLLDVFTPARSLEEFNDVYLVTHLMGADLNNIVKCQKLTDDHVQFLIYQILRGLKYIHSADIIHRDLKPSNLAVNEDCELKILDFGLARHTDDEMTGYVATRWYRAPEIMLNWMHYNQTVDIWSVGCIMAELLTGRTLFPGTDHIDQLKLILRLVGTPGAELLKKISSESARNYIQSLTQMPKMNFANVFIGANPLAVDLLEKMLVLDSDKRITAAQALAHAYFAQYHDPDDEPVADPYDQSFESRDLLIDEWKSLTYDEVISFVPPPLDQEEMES

[2] = Inhibition of LPS-stimulated TNFalpha release in human PBMC cells preincubated for 1 hr followed by LPS stimulation and measured after 18 hrs; assay type: functional, cell-based
[3] = biological target: T1, Mitogen-activated protein kinase 14; assay: Displacement of SKF-86002 from human inactivated p38alpha assessed as dissociation half life incubated for 2 hrs by fluorescence based analysis

## CC(C)(C)c1cc(NC(=O)N[C@H]2CC[C@@H](Oc3ccc4nnc(N5CCCCC5)n4c3)c3ccccc32)n(-c2ccc(Cl)c(O)c2)n1
[1]
  IC50: 0.5 nM
[2]
  IC50: 0.2 nM
[3]
  T1/2: > 16 h

## C[C@H]1CCCCN1c1nnc2ccc(O[C@@H]3CC[C@H](NC(=O)Nc4cc(C(C)(C)C)nn4-c4cnn(CCN5CCCOCC5)c4)c4ccccc43)cn12
[1]
  IC50: 0.4 nM
[2]
  IC50: 0.8 nM
[3]
  T1/2: > 16 h

## CN1CCN(Cc2ccc(-n3nc(C(C)(C)C)cc3NC(=O)N[C@H]3CC[C@@H](Oc4ccc5nnc(N6CCCCC6)n5c4)c4ccccc43)cc2)CC1
[1]
  IC50: 0.6 nM
[2]
  IC50: 2.2 nM
[3]
  T1/2: 1.4 h

## C[C@H]1CCCCN1c1nnc2ccc(O[C@@H]3CC[C@H](NC(=O)Nc4cc(C(C)(C)C)nn4-c4cnn(CCN5CCN(C)CC5)c4)c4ccccc43)cn12
[1]
  IC50: 0.3 nM
[2]
  IC50: 3.2 nM
[3]
  T1/2: > 16 h

## Cc1ccc(-n2nc(C(C)(C)C)cc2NC(=O)N[C@H]2CC[C@H](Oc3ccc4nnc(C(C)C)n4c3)CC2)cc1
[1]
  IC50: 6.1 nM
[2]
  IC50: 36 nM
[3]
  T1/2: 0.09 h

## CN(C)CCOc1cc(-n2nc(C(C)(C)C)cc2NC(=O)N[C@H]2CC[C@@H](Oc3ccc4nnc(N5CCCCC5)n4c3)c3ccccc32)ccc1Cl
[1]
  IC50: 0.2 nM
[2]
  IC50: 1.4 nM
[3]
  T1/2: 3.5 h

## Cc1ccc(-n2nc(C(C)(C)C)cc2NC(=O)N[C@H]2CC[C@@H](Oc3ccc4nnc(N5CCOCC5)n4c3)c3ccccc32)cc1
[1]
  IC50: 1.1 nM
[2]
  IC50: 0.9 nM
[3]
  T1/2: 5.8 h

## CC(C)c1nnc2ccc(O[C@@H]3CC[C@H](NC(=O)Nc4cc(C(C)(C)C)nn4-c4ccc(O)c(Cl)c4)c4ccccc43)cn12
[1]
  IC50: 0.08 nM
[2]
  IC50: 1.1 nM
[3]
  T1/2: 1.31 h

## C[C@H]1CCCCN1c1nnc2ccc(O[C@@H]3CC[C@H](NC(=O)Nc4cc(C(C)(C)C)nn4-c4cnn(CCN5CCC(O)CC5)c4)c4ccccc43)cn12
[1]
  IC50: 0.4 nM
[2]
  IC50: 5.1 nM
[3]
  T1/2: > 16 h

## CC(C)(C)c1cc(NC(=O)N[C@H]2CC[C@@H](Oc3ccc4nnc(N5CCC(O)CC5)n4c3)c3ccccc32)n(-c2ccc(CO)cc2)n1
[1]
  IC50: 0.4 nM
[2]
  IC50: 14 nM
[3]
  T1/2: > 16 h

## C[C@H]1CCCCN1c1nnc2ccc(O[C@@H]3CC[C@H](NC(=O)Nc4cc(C(C)(C)C)nn4-c4cnn(CCN5CCOCC5)c4)c4ccccc43)cn12
[1]
  IC50: 0.5 nM
[2]
  IC50: 1.8 nM
[3]
  T1/2: > 16 h

## CC(C)(C)c1cc(NC(=O)N[C@H]2CC[C@@H](Oc3ccc4nnc(N5CCCCC5)n4c3)c3ccccc32)n(-c2cccc(CO)c2)n1
[1]
  IC50: 0.6 nM
[2]
  IC50: 0.2 nM
[3]
  T1/2: > 16 h

## COCCN(C)CCn1cc(-n2nc(C(C)(C)C)cc2NC(=O)N[C@H]2CC[C@@H](Oc3ccc4nnc(N5CCCC[C@@H]5C)n4c3)c3ccccc32)cn1
[1]
  IC50: 0.2 nM
[2]
  IC50: 0.9 nM
[3]
  T1/2: > 16 h

## C[C@H]1CCCCC1c1nnc2ccc(O[C@@H]3CC[C@H](NC(=O)Nc4cc(C(C)(C)C)nn4-c4cccc(CN5CCN(C)CC5)c4)c4ccccc43)cn12 (stereo partly specified)
[1]
  IC50: 0.3 nM
[2]
  IC50: 1 nM
[3]
  T1/2: > 16 h

## CC(C)(C)c1cc(NC(=O)N[C@H]2CC[C@@H](Oc3ccc4nnc(N5CCCCC5)n4c3)c3ccccc32)n(-c2cccc(CN3CCCCC3)c2)n1
[1]
  IC50: 1.3 nM
[2]
  IC50: 1.9 nM
[3]
  T1/2: 1.2 h

## C[C@@H]1CCC[C@H](C)N1c1nnc2ccc(O[C@@H]3CC[C@H](NC(=O)Nc4cc(C(C)(C)C)nn4-c4cccc(OCCN(C)C)c4)c4ccccc43)cn12
[1]
  IC50: 0.3 nM
[2]
  IC50: 1 nM
[3]
  T1/2: > 16 h

## CC(C)c1nnc2ccc(O[C@@H]3CC[C@H](NC(=O)Nc4cc(C(C)(C)C)nn4-c4cccc(OCCN(C)C)c4)c4ccccc43)cn12
[1]
  IC50: 0.8 nM
[2]
  IC50: 9.1 nM
[3]
  T1/2: 0.89 h

## Cc1ccc(-n2nc(C(C)(C)C)cc2NC(=O)N[C@H]2CC[C@@H](Oc3ccc4nnc(N5CCN(C)CC5)n4c3)c3ccccc32)cc1
[1]
  IC50: 1 nM
[2]
  IC50: 2.5 nM
[3]
  T1/2: 9 h

## C[C@H]1CCCCN1c1nnc2ccc(O[C@@H]3CC[C@H](NC(=O)Nc4cc(C(C)(C)C)nn4-c4cnnc(OCCN(C)C)c4)c4ccccc43)cn12
[1]
  IC50: 0.3 nM
[2]
  IC50: 1.2 nM
[3]
  T1/2: 1.1 h

## C[C@H]1CCCCC1c1nnc2ccc(O[C@@H]3CC[C@H](NC(=O)Nc4cc(C(C)(C)C)nn4-c4cccc(OCCN5CCOCC5)c4)c4ccccc43)cn12 (stereo partly specified)
[1]
  IC50: 0.5 nM
[2]
  IC50: 0.8 nM
[3]
  T1/2: > 16 h

## CC(C)c1nnc2ccc(O[C@@H]3CC[C@H](NC(=O)Nc4cc(C(C)(C)C)nn4C)c4ccccc43)cn12
[1]
  IC50: 0.3 nM
[2]
  IC50: 3.9 nM
[3]
  T1/2: 0.07 h

## Cc1ccc(-n2nc(C(C)(C)C)cc2NC(=O)N[C@H]2CC[C@@H](Oc3ccc4nnc(C5CCCC5)n4c3)c3ccccc32)cc1
[1]
  IC50: 0.1 nM
[2]
  IC50: 0.3 nM
[3]
  T1/2: > 16 h

## Cc1ccc(-n2nc(C(C)(C)C)cc2NC(=O)N[C@H]2CC[C@@H](Oc3ccc4nnc(N5CCC(O)CC5)n4c3)c3ccccc32)cc1
[1]
  IC50: 0.5 nM
[2]
  IC50: 2.1 nM
[3]
  T1/2: > 16 h

## CCN(C)CCn1cc(-n2nc(C(C)(C)C)cc2NC(=O)N[C@H]2CC[C@@H](Oc3ccc4nnc(N5CCCC[C@@H]5C)n4c3)c3ccccc32)cn1
[1]
  IC50: 0.2 nM
[2]
  IC50: 2.5 nM
[3]
  T1/2: 9 h

## C[C@H]1CCCCN1c1nnc2ccc(O[C@@H]3CC[C@H](NC(=O)Nc4cc(C(C)(C)C)nn4-c4cncc(OCCN(C)C)c4)c4ccccc43)cn12
[1]
  IC50: 0.03 nM
[2]
  IC50: 1 nM
[3]
  T1/2: 5 h

## C[C@H]1CCCCN1c1nnc2ccc(O[C@@H]3CC[C@H](NC(=O)Nc4cc(C(C)(C)C)nn4-c4ccn(CCN(C)C)n4)c4ccccc43)cn12
[1]
  IC50: 0.2 nM
[2]
  IC50: 2.7 nM
[3]
  T1/2: 1.9 h

## CC(C)c1nnc2ccc(O[C@@H]3CC[C@H](NC(=O)Nc4cc(C(C)(C)C)nn4-c4cccc(OCCO)c4)c4ccccc43)cn12
[1]
  IC50: 0.4 nM
[2]
  IC50: 1 nM
[3]
  T1/2: 1.9 h

## C[C@@H]1CCCCN1c1nnc2ccc(O[C@@H]3CC[C@H](NC(=O)Nc4cc(C(C)(C)C)nn4-c4cccc(OCCN(C)C)c4)c4ccccc43)cn12
[1]
  IC50: 0.2 nM
[2]
  IC50: 1.6 nM
[3]
  T1/2: 5.4 h

## CC(C)(C)c1cc(NC(=O)N[C@H]2CC[C@@H](Oc3ccc4nnc(N5CCCCC5)n4c3)c3ccccc32)n(-c2cccc(CN3CCNCC3)c2)n1
[1]
  IC50: 0.8 nM
[2]
  IC50: 1.1 nM
[3]
  T1/2: 5 h

## CN(C)CCOc1cccc(-n2nc(C(C)(C)C)cc2NC(=O)N[C@H]2CC[C@@H](Oc3ccc4nnc(N5CCCCC5)n4c3)c3ccccc32)c1
[1]
  IC50: 0.6 nM
[2]
  IC50: 1.3 nM
[3]
  T1/2: 3.6 h

## CC(C)c1nnc2ccc(O[C@@H]3CC[C@H](NC(=O)Nc4cc(C(C)(C)C)nn4-c4ccc(Cl)c(O)c4)c4ccccc43)cn12
[1]
  IC50: 0.05 nM
[2]
  IC50: 0.7 nM
[3]
  T1/2: 0.89 h

## C[C@H]1CCCCN1c1nnc2ccc(O[C@@H]3CC[C@H](NC(=O)Nc4cc(C(C)(C)C)nn4-c4cccc(OCCN(C)C)n4)c4ccccc43)cn12
[1]
  IC50: 2 nM
[2]
  IC50: 5.8 nM
[3]
  T1/2: 2.9 h

## Cc1ccc(-n2nc(C(C)(C)C)cc2NC(=O)N[C@H]2CC[C@@H](Oc3ccc4nnc(C5CCCCC5)n4c3)c3ccccc32)cc1
[1]
  IC50: 0.3 nM
[2]
  IC50: 0.4 nM
[3]
  T1/2: > 16 h

## C[C@H]1CCCCN1c1nnc2ccc(O[C@@H]3CC[C@H](NC(=O)Nc4cc(C(C)(C)C)nn4-c4cccc(OCCN5CCN(C)CC5)c4)c4ccccc43)cn12
[1]
  IC50: 0.3 nM
[2]
  IC50: 2.1 nM
[3]
  T1/2: 5.1 h

## Cc1ccc(-n2nc(C(C)(C)C)cc2NC(=O)N[C@H]2CC[C@@H](Oc3ccc4nnc(N5CCCC5)n4c3)c3ccccc32)cc1
[1]
  IC50: 0.5 nM
[2]
  IC50: 0.3 nM
[3]
  T1/2: > 16 h

## Cc1ccc(-n2nc(C(C)(C)C)cc2NC(=O)N[C@H]2CC[C@H](Oc3ccc4nnc(C(C)C)n4c3)c3ccccc32)cc1
[1]
  IC50: 0.1 nM
[2]
  IC50: 0.1 nM
[3]
  T1/2: > 16 h

## CC(C)c1nnc2ccc(O[C@@H]3CC[C@H](NC(=O)Nc4cc(C(C)(C)C)nn4-c4ccccc4)c4ccccc43)cn12
[1]
  IC50: 0.06 nM
[2]
  IC50: 0.5 nM
[3]
  T1/2: 1.74 h
